Reference: patent US20060228417A1, “Mucoadhesive composition comprising polyacrylate and chemoattractant” (priority 2003, published 2006)
Where no end group is shown, it is not given here.

Legend:
[1] = tested on: DC in organotypic cultures of HPV-transformed keratinocytes; assay: DC infiltration depth in organotypic cultures of HPV-transformed keratinocytes; type: cell-based, human; settings: 48 hours after chemoattractant addition; GM-CSF 800 U/ml, MCP-1 500 ng/ml, HNP2 750 ng/ml (FIG. 6A)
Excerpt: (§1) DC were generated from the adherent fraction of human PBMC (Peripheral Blood Mononuclear Cells) with 800 U/ml GM-CSF (Novartis, Brussels) and 20 U/ml IL-4 (Biosource Europe, Nivelles, Belgium), as previously described (16). DC generated for this study constituted a 90% pure cell population based on several criteria including morphology, forward-scatter and side-scatter values observed by FACS (Fluorescence Activated Cell Sorter) analysis and surface phenotype (CD1a+, CD14−, CD4+, CD54+, . . . ).
Organotypic cultures of HPV-transformed keratinocytes (SiHa cell line (10)) were prepared as previously reported (17). After a 2 week stratification of keratinocytes, labeled DC were seeded on top of the in vitro formed epithelium at a concentration of 2×10^5 cells/50 μl of culture medium. The organotypic culture was then placed on the polycarbophil gel containing or not 800 U/ml of GM-CSF. In order to maintain the culture, the polycarbophil gel (1.5 w/w) was prepared by dispersing the Noveon AA1 in keratinocyte growth medium. […]
The density of DC migrating into the epithelial layer was assessed by the avidin-biotin-peroxidase technique (Vectastain ABC kit, Vector laboratories, Burlingame, Calif.) with an anti-CD1a monoclonal antibody (clone NA1/34 from Dako, Glostrup, Denmark). […] The DC infiltration in organotypic cultures was evaluated by measuring the surface of immunostained cells with a computerized system of image analysis (CAS, Becton Dickinson, Erembodegem, Belgium) following a method previously described (6). The entire surface of each culture section was analyzed and 5 sections of each culture were stained with anti-CD1a. The positive surface was expressed as the percentage of the total surface analyzed. In additional experiments, the LC/DC infiltration depth in the organotypic culturs was evaluated by measuring the distance between the top of the epithelium and individual DC with a computerized system of image analysis (CAS, Becton Dikinson, Erembodegem, Belgium). We then calculated the ratio between the infiltration depth and the thickness of the culture. […]

[2] = tested on: DC in organotypic cultures of HPV-transformed keratinocytes (SiHa cell line); assay: DC infiltration into organotypic cultures of HPV-transformed keratinocytes (CD1a labeled surface); type: cell-based, human; settings: 800 U/ml GM-CSF, 48 h
Excerpt: as §1
The DC were labeled with a lipophilic fluorescent marker (CM-DiL, Molecular Probes, Leiden, The Netherlands) according to a previously described procedure with minor modifications. Briefly, 4×106 DC were resuspended in 1 ml of PBS and heated to 37° C. […]
The density of DC migrating into the epithelial layer was assessed by the avidin-biotin-peroxidase technique (Vectastain ABC kit, Vector laboratories, Burlingame, Calif.) with an anti-CD1a monoclonal antibody (clone NA1/34 from Dako, Glostrup, Denmark). […] The DC infiltration in organotypic cultures was evaluated by measuring the surface of immunostained cells with a computerized system of image analysis (CAS, Becton Dickinson, Erembodegem, Belgium) following a method previously described (6). The entire surface of each culture section was analyzed and 5 sections of each culture were stained with anti-CD1a. […]

[3] = tested on: human DC in xenografts of HPV-transformed keratinocytes (CasKi cell line); assay: Xenograft assay in NOD/SCID mice: DC recruitment into transplants of HPV-transformed keratinocytes; type: in vivo
Method: HPV-transformed keratinocytes (2×10^5, CasKi cell line, ATCC, CRL-1550) were plated on collagen gel (2 mg/ml of type I collagen isolated from rat tail tendons) inserted in Teflon rings (Renner, Dannstadt, Germany) and maintained in culture for one day before transplantation onto mice. Twelve-week-old NOD-scid/scid mice were used for this study. They were housed under sterile conditions and water and feed were provided ad libitum. Before transplantation, the cells were washed and the medium was drained. […] Fluorescent DC were counted in the epithelium and, after anti-keratin immunolabeling, the epithelial surface was evaluated with a computerized system of image analysis (CAS, Becton Dickinson, Erembodegem, Belgium). Infiltration results were expressed as numbers of DC per mm^2 of epithelium. […]
Graft cryosections (5 μm in thickness) were fixed in acetone at −20° C. and in 80% methanol at 4° C. […] After washes in PBS, coverslips were mounted and labeling was analysed under an microscope equipped with epifluorescence optics.
A control group of mice was treated with PBS alone. […] The DC infiltration in transplants was assessed by looking for stained DC in histological sections. […] Quantitative analysis of DC infiltration was performed by determining the number of DC per mm2 of epithelial tissue.

| Substance | DC infiltration depth in organotypic culture [1] | DC infiltration, CD1a labeled surface ([2]; mean ± SD (n=5)) | density of fluorescent-labeled DC within the epithelial sheet ([2]; versus absence of GM-CSF (FIG. 4)) | recruitment of DC in the tumor grafts ([3]; GM-CSF applied in transplantation chamber versus control mice (FIG. 5)) | DC infiltration in the grafts, number of DC per mm2 of epithelial tissue ([3]; NOD-SCID mice, 200 μl injected twice into transplantation chamber, 4×10^5 U/ml or U/g, mean ± SD (n=5)) |
| --- | --- | --- | --- | --- | --- |
| Human Neutrophil Peptide-2 (CYCRIPACIAGERRYGTCIYQGRLWAFCC; ends and bridges not checked; cysteine pairing not given here; UniProt P59665 66-94, looked up) [HNP2, human neutrophil defensin 2, Sigma-Aldrich] | reached an infiltration level equivalent to that obtained with GM-CSF |  |  |  |  |
| Monocyte Chemotactic Protein 1 [MCP1] | reached an infiltration level equivalent to that obtained with GM-CSF |  |  |  |  |
| granulocyte macrophage—colony stimulating factor [GM-CSF] | significant increase in the density of DC observed in the epithelial layer | 28.33±8.11 % of CD1a labeled surface | significant increase in the density of DC | significant (p<0.001) recruitment of DC | 16.6±14.6 DC/mm2 |
